The target of one assay is T1, mouse TAAR3 (Mus musculus, UniProt Q5QD16).
T1 construct: Full Taar coding regions were cloned into pcDNA3.1-(Invitrogen); expressed in transfected cells; host or cells: HEK293
T1 sequence (Q5QD16 1-343): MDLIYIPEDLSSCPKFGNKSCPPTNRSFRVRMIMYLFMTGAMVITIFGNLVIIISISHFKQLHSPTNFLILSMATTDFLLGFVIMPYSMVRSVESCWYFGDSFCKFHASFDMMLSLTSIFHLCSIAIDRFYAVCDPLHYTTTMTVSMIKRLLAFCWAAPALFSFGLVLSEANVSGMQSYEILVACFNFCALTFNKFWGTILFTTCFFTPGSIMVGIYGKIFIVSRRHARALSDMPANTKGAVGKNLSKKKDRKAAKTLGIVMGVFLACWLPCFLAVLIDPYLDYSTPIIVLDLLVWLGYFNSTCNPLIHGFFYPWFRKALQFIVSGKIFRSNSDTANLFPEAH
Briefly: TAAR3 CRE-SEAP reporter gene assay in transfected HEK293 cells. The assay is classed as cell-based. As for the experimental part: Reporter gene assays were performed on HEK293 cells transfected with mouse TAAR3 and CRE-SEAP.
TAAR functional assays. Reporter gene assays were performed as described (Liberles S D & Buck LB (2006) A second class of chemosensory receptors in the olfactory epithelium. Nature 442(7103):645-650) with the following minor modifications. Test urines were diluted in serum-free media containing penicillin G (100 Units/ml, Invitrogen) and streptomycin sulfate ([…], Invitrogen). SEAP activity is measured as fluorescence resulting from dephosphorylation of a substrate, 4-methylumbelliferyl phosphate. Fluorescence values were obtained using an EnVision plate reader (Perkin Elmer) and are reported directly without normalization. All TAARs, except mouse TAAR3, were expressed as fusion proteins with an N-terminal sequence of bovine rhodopsin (Krautwurst D, Yau K W, & Reed R R (1998) Identification of ligands for olfactory receptors by functional expression of a receptor library. Cell 95(7):917-926).
A general note: Reporter assays use an easily measured gene product as a stand-in for the process of interest.

A further assay has as its target T2, rTAAR8c (Rattus norvegicus, UniProt Q923Y0).
T2 construct: Full Taar coding regions were cloned into pcDNA3.1; expressed in transfected cells; host or cells: HEK293
T2 sequence (Q923Y0 1-344): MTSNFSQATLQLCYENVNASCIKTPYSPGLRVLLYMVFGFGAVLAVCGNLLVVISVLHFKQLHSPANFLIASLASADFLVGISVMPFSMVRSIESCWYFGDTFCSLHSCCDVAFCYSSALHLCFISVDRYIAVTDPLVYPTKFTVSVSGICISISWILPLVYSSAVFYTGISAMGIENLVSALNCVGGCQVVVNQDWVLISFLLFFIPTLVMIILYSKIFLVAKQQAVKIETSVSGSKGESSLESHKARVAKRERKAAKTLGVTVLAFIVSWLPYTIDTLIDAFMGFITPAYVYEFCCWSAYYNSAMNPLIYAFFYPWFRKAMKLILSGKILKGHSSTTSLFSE
Nature of the assay: CRE-SEAP reporter gene assay in HEK293 cells transfected with rTAAR8c. The format is cell-based. The conditions noted are these: FIG. 11A, functional with or without 'Rho tag', EC50 ± s.e.m., 4-parameter Hill equation. As for the experimental part: FIG. 11 illustrates the dose-dependent responses of TAARs to amines. HEK293 cells were cotransfected with plasmids encoding CRE-SEAP and rTAARs (a) or mTAARs (b), incubated with concentrations of ligands indicated, and assayed for reporter activity (triplicates±s.d.). EC50 values (±s.e.m, bottom right) were calculated using SigmaPlot (Systat Software) and a 4-parameter Hill equation.
The following mixes (10 μM of each indicated compounds) were tested for their ability to activate rat TAARs. Mix 1: butylamine, dibutylamine, hexylamine. Mix 2: 2-aminopentane, isoamylamine, isobutylamine, isopropylamine. Mix 3: N,N-dimethylcyclohexylamine, 1-methylindole, tryptamine, phenylethylamine. Mix 4: indole, 1-methylpyrrolidine, 1-methylpiperidine, pyrrolidine. […]
Full Taar coding regions were cloned into pcDNA3.1-(Invitrogen) with or without a 5′ DNA extension of 69 bp encoding the first 20 amino acids of bovine rhodopsin followed by a cloning linker ([…]). […] Fluorescence was measured on an EnVision plate reader (Perkin Elmer) and SEAP activity graphed as relative fluorescence of a phosphatase substrate.
Here, we set out to identify agonists for additional mouse and rat TAARs. […] Transfected cells were incubated with test chemicals, and phosphatase activity was quantified with a fluorescent substrate as a reporter for TAAR activation. […]

Structures are written as SMILES.

For `NCCc1ccccc1` [2-phenylethylamine], the EC50 on mouse TAAR3 was ~100 µM. In addition, the “reduced sensitivity of TAAR3 compared to TAAR4” value on mouse TAAR3 (TAAR3 vs TAAR4) was found to be 30 fold. In the case of `CN(C)C1CCCCC1` [N,N-DIMETHYLCYCLOHEXYLAMINE, N,N-dimethylcyclohexylamine], the EC50 at rTAAR8c is 0.55 ± 0.19 µM.

In general, EC50 refers to the concentration at which the effect is half-maximal.
